Data on 3 molecules can be found in US11642335B2, “Chemical synthesis of clopidogrel active metabolites and disulfide conjugate prodrugs” (Board of Regents, The University of Texas System, priority 2019, dated 2023).

Entries after “also recorded” stand apart in the source; their conditions may differ.

The conditions of series [1]: patients treated with CPG; cited from earlier work.
Series [2] has as its target P2Y12R (Homo sapiens, UniProt Q9H244). Conditions: biosynthesized H2, relative to H4; cited from earlier work.
Series [3] concerns FeCl3 carotid artery injury-induced thrombosis. Kind of series: FeCl3 carotid artery injury-induced thrombosis mouse model (in vivo antiplatelet test). To be noted: for occlusion time of thrombosis: tail vein administration of 1 mg/kg, compared to vehicle (negative control) and CPG (positive control), FIG. 14, 1 mg/kg. An excerpt:
Referring now to FIGS. 14-18, In vivo antiplatelet test of synthetic H3 and H4 in a FeCl3 carotid artery injury-induced thrombosis mouse model.

The subject of series [4] is antiplatelet activity. To be noted: cited from earlier work.

Sequence of P2Y12R (Q9H244 whole entry): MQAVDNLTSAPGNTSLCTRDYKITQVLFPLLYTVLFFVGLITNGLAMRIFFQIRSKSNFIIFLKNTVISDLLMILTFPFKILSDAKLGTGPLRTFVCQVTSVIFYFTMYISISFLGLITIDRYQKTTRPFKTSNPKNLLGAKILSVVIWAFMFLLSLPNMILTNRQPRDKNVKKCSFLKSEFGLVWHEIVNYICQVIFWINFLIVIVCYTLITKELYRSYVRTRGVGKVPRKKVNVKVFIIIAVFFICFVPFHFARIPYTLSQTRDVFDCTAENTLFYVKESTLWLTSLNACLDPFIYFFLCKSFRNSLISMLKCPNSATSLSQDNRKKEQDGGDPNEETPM

Turning to `COC(=O)[C@H](c1ccccc1Cl)N1CC[C@@H](S)/C(=C\C(=O)O)C1` [H2], the “detection as circulating metabolite in patients' plasma” value (from here on “detection as circulating metabolite”) in series [1] is recorded as “not detected”. For the same molecule, the “potency against P2Y12R in vitro” value in series [2] is given as “similarly potent as H4”.

For the molecule `COC(=O)[C@H](c1ccccc1Cl)N1CC[C@@H](S)/C(=C\C(=O)O)C1` [H4], in series [1], the “detection as circulating metabolite” value was “detected as circulating metabolites”. Also, the “stereospecific potency in vivo” value in series [3] (synthetic metabolite, mice) is given as “stereospecific potency in mice; also recorded: stereospecific potency in vivo”. In addition, in series [3], the “occlusion time of thrombosis” value was “significantly prolong the occlusion time of thrombosis”. Moreover, the “activity in in vitro pharmacological studies (antiplatelet)” value in series [4] is given as “active”.

On to `COC(=O)[C@H](c1ccccc1Cl)N1CC[C@@H](S)/C(=C\C(=O)O)C1` [H3], for which the “detection as circulating metabolite” value in series [1] is “detected as circulating metabolites”. Moreover, in series [3], the “occlusion time of thrombosis” value is “ineffective”.
